The values below come from patent US20260285857A1, “BICYCLIC AND HETEROCYCLIC AMIDE COMPOUNDS” (priority 2024, published 2026).

The test system of the test is immunoglobulin light chain protein WIL-FL T46L. In words: Differential scanning fluorimetry (thermal shift) assay. Format: binding. As to conditions: Table B; temperature shift [Tm]compound-[Tm]vehicle; recombinant WIL-FL T46L. (In general: In DSF a fluorescence change marks the thermal transition of the protein.)

As to `Cc1cc(N2CC[C@](C)(c3ccccc3)C2)cn2nc(C34CC(CO3)C4c3ncn[nH]3)nc12` (stereo partly drawn) [Compound 494], the DSF result is recorded as “***** (>2.5° C.=*****)”.

`C[C@]1(c2ccccc2)CCN(c2cc(CO)c3nc(C45CC(CO4)C5C(N)=O)nn3c2)C1` (stereo partly drawn) [Compound 495]: the DSF entry is reported as “***** (>2.5° C.=*****)”.

Regarding `Cc1cc(N2CC[C@@](C)(n3ccc(C(F)(F)F)n3)C2)cn2nc(C34CC(CO3)C4c3nc(N)n[nH]3)nc12` (stereo partly drawn) [Compound 496, 5-(1-(8-methyl-6-((R)-3-methyl-3-(3-(trifluoromethyl)-1H-pyrazol-1-yl)pyrrolidin-1-yl)-[1,2,4]triazolo[1,5-a]pyridin-2-yl)-2-oxabicyclo[2.1.1]hexan-5-yl)-1H-1,2,4-triazol-3-amine], the DSF entry is “**** (>1.5-2.5° C.=****)”.

Turning to `Cc1cc(N2CC[C@](C)(c3ccccc3)C2)cn2nc(C34CC(CO3)C4COC3CC4(C3)CN(c3ccnc(O)c3)C4)nc12` (stereo partly drawn) [Compound 497, 4-(6-((1-(8-methyl-6-((R)-3-methyl-3-phenylpyrrolidin-1-yl)-[1,2,4]triazolo[1,5-a]pyridin-2-yl)-2-oxabicyclo[2.1.1]hexan-5-yl)methoxy)-2-azaspiro[3.3]heptan-2-yl)pyridin-2-ol], the DSF result is reported as “***** (>2.5° C.=*****)”.

For the compound `COC(=O)NCC1C2COC1(c1nc3c(C)cc(N4CC[C@](C)(c5ccccc5)C4)cn3n1)C2` (stereo partly drawn) [Compound 498], the DSF result is listed as “***** (>2.5° C.=*****)”.

For `COc1ccc(OCC2C3COC2(c2nc4c(C)cc(N5CC[C@](C)(c6ccccc6)C5)cn4n2)C3)cn1` (stereo partly drawn) [Compound 499], the DSF entry is on record as “***** (>2.5° C.=*****)”.

As to `Cc1cc(N2CC[C@](C)(c3ccccc3)C2)cn2nc(C34CC(CO3)C4COc3ccc(=O)[nH]c3)nc12` (stereo partly drawn) [Compound 500], the DSF entry is “***** (>2.5° C.=*****)”.

For `Cc1cc(N2CC[C@](C)(c3ccccc3)C2)cn2nc(C34CC(CO3)C4COC3CC4(CNC4)C3)nc12` (stereo partly drawn) [Compound 501], the DSF result is on record as “***** (>2.5° C.=*****)”.

`Cc1cc(N2CC[C@](C)(c3ccccc3)C2)cn2nc(C34CC(CO3)C4COC3CCN(c4ccnc(C(=O)O)c4)CC3)nc12` (stereo partly drawn) [Compound 502]: the DSF result is “***** (>2.5° C.=*****)”.

For the compound `Cc1cc(N2CC[C@](C)(c3ccccc3)C2)cn2nc(C34CC(CO3)C4COC3CCN(c4cccc(C(=O)O)n4)CC3)nc12` (stereo partly drawn) [Compound 503], the DSF result is given as “***** (>2.5° C.=*****)”.

With `Cc1cc(N2CC[C@](C)(c3ccccc3)C2)cn2nc(C34CC(CO3)C4Cc3nnn[nH]3)nc12` (stereo partly drawn) [Compound 504], the DSF result is “***** (>2.5° C.=*****)”.

Turning to `Cc1cc(N2CC[C@](C)(c3ccccc3)C2)cn2nc(C34CC(CO3)C4Cc3nnc[nH]3)nc12` (stereo partly drawn) [Compound 505, 2-(5-((4H-1,2,4-triazol-3-yl)methyl)-2-oxabicyclo[2.1.1]hexan-1-yl)-8-methyl-6-((R)-3-methyl-3-phenylpyrrolidin-1-yl)-[1,2,4]triazolo[1,5-a]pyridine], the DSF entry is given as “***** (>2.5° C.=*****)”.

With `Cc1cc(N2CC[C@](C)(c3ccccc3)C2)cn2nc(C34CC(CO3)C4CN3CC4C(C3)C4C(=O)O)nc12` (stereo partly drawn) [Compound 506, 3-((1-(8-methyl-6-((R)-3-methyl-3-phenylpyrrolidin-1-yl)-[1,2,4]triazolo[1,5-a]pyridin-2-yl)-2-oxabicyclo[2.1.1]hexan-5-yl)methyl)-3-azabicyclo[3.1.0]hexane-6-carboxylic acid], the DSF entry is recorded as “***** (>2.5° C.=*****)”.

Regarding `Cc1cc(N2CC[C@](C)(c3cccc(F)c3)C2)cn2nc(C34CC(CO3)C4N3CC4(CC4)NC3=O)nc12` (stereo partly drawn) [Compound 507, 6-(1-(6-((R)-3-(3-fluorophenyl)-3-methylpyrrolidin-1-yl)-8-methyl-[1,2,4]triazolo[1,5-a]pyridin-2-yl)-2-oxabicyclo[2.1.1]hexan-5-yl)-4,6-diazaspiro[2.4]heptan-5-one], the DSF entry is reported as “***** (>2.5° C.=*****)”.

Take `Cc1cc(N2CC[C@](C)(c3cccc(F)c3)C2)cn2nc(C34CC(CO3)C4N)nc12` (stereo partly drawn) [Compound 508]: the DSF result is recorded as “***** (>2.5° C.=*****)”.
